Test results: EP0057998B1, “Alicyclic compounds, their production and use” (Takeda Chemical Industries, Ltd., priority 1981, dated 1982)
Counter-ions that a name gives are not always drawn.

Key:
[1] = target: Angiotensin I Converting Enzyme (ACE) (Homo sapiens, UniProt P12821); test: Inhibition of Angiotensin I Converting Enzyme (ACE), HHL substrate, hippuric acid colorimetry (modified Cushman method); assay type: biochemical; details: 37°C for one hour, pH 8.3, read-out: Inhibitory Activity on ACE (%); for inhibition at 1 µM: Concentration 1 μM; for inhibition at 10 µM: Concentration 10 μM
Experimental: Inhibitions of Angiotensin I Converting Enzyme (ACE) by the Compounds of this Invention. The experiment was conducted in accordance with a modification of the method described by Cushman et al. [Biochemical Pharmacology, Vol. 20, 1637 (1971)]. That is, using hippuryl-L-histidyl-L-leucine (HHL) as the substrate, the ACE inhibitory activity was determined in terms of percent inhibition of the amount of hippuric acid produced by ACE when the present compound was added. A solution of the compound of the present invention dissolved in a 0.02 to 0.5% dimethyl sulfoxide-1 00 mM potassium phosphate buffer solution (pH 8.3, containing 300 mM sodium chloride) was added to 100 µl of ACE (protein concentration, 20 mg/ml) and 100 µl of -1.25 mM HHL. In this experiment, a potassium phosphate buffer solution containing dimethyl sulfoxide at a concentration equal to that of the test solution was used as a control. After incubating the solution at 37°C for one hour, 150 µl of 1 N hydrochloric acid was added to the solution to terminate the reaction. After 1 ml of ethyl acetate was added, the solution was centrifuged at 3000 r.p.m. for 10 minutes. A 0.5 ml aliquot was separated from the ethyl acetate layer and dried at a temperature below 50°C under nitrogen gas streams. The residue was mixed with 5 ml of 1 M aqueous sodium chloride and the mixture was subjected to colorimetry at a wavelength of 228 nm.

[2] = tested on: Hypertensive Reaction by Angiotensin I; test: Effect against hypertensive activity of angiotensin I in rats after oral administration; assay type: in vivo, Male rats (Sprague-Dawley); details: 13.8 µM/kg orally, angiotensin I 300 ng/kg i.v., corrected by angiotensin II reaction; for Percent Inhibition (%) against Hypertensive Reaction by Angiotensin I After 20 min.: 20 min after administration; for Percent Inhibition (%) against Hypertensive Reaction by Angiotensin I After 60 min.: 60 min after administration; for Percent Inhibition (%) against Hypertensive Reaction by Angiotensin I After 120 min.: 120 min after administration
Experimental: Effect of Present Compounds against Hypertensive Activity of Angiotensin I. Male rats (Sprague-Dawley) weighing 250 g to 350 g which were fed under free access to drinking water and feeds were used as experimental animals. The rats were anesthetized with intraperitoneal administration of pentobarbital sodium (50 mg/kg) on the day before the test day and a polyethylene tube was inserted into each of the femoral artery for measurement of blood pressure and the femoral vein for injection of angiotensin I and II, and then the tubes were fixed. […] Then, 13.8 µM/kg of the compound of this invention was administered orally as an aqueous solution or an aqueous gum arabic suspension, and 20, 60 and 120 minutes after the administration, angiotensin I and II were injected repeatedly to trace hypertensive reactions. In calculating the percent inhibition to the hypertensive activity of angiotensin I, the percent inhibitory value was corrected based on the variation with time in the hypertensive reaction by angiotensin II.

Chain of Angiotensin I Converting Enzyme (ACE) (P12821 30-1306, species assumed): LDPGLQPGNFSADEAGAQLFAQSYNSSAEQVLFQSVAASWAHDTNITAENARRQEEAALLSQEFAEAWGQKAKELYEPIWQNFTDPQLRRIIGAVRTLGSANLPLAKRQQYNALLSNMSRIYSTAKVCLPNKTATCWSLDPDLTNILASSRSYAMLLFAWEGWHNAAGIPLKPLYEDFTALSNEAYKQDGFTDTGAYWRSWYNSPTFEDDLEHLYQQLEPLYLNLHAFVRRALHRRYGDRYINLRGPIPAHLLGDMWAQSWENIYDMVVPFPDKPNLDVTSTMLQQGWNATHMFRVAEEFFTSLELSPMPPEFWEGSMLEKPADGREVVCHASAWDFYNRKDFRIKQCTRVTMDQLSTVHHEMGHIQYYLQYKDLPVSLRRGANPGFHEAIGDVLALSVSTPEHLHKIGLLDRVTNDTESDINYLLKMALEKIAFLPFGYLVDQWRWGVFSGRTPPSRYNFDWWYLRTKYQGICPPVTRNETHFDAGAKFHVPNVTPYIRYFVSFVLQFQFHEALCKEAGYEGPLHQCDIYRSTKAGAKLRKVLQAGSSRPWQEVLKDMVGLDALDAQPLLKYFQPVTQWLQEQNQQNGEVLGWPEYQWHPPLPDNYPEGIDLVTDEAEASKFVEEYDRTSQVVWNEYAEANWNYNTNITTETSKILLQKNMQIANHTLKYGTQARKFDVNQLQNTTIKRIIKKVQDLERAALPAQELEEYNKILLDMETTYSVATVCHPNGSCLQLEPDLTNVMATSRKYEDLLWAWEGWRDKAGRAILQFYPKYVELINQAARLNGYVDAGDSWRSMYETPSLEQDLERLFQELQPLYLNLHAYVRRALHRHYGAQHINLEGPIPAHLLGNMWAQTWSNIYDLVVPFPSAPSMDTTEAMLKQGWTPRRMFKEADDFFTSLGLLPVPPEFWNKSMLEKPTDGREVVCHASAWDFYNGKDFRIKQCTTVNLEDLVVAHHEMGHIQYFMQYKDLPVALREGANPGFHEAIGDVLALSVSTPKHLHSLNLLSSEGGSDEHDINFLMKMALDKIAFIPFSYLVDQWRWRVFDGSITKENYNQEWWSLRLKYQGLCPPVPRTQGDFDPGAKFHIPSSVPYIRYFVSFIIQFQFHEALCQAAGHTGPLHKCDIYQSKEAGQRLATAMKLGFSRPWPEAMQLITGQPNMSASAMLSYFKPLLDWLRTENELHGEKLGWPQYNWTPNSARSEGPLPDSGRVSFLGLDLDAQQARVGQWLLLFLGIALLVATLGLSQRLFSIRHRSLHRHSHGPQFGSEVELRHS

| Structure (SMILES) | inhibition at 1 µM [1] [%] | inhibition at 10 µM [1] [%] | Percent Inhibition (%) against Hypertensive Reaction by Angiotensin I After 20 min. [2] [%] | Percent Inhibition (%) against Hypertensive Reaction by Angiotensin I After 60 min. [2] [%] | Percent Inhibition (%) against Hypertensive Reaction by Angiotensin I After 120 min. [2] [%] |
| --- | --- | --- | --- | --- | --- |
| C[C@H](NC(CCc1ccccc1)C(=O)O)C(=O)N(CC(=O)O)C1CCCC1 (stereo partly drawn) [Example 13, N-(1-carboxy-3-phenylpropyl)-L-alanyl-N-cyclopentylglycine] | 93 | 100 | 58 | 64 | 62 |
| CCOC(=O)C(CCc1ccccc1)N[C@@H](C)C(=O)N(CC(=O)O)C1CCCCC1.Cl (stereo partly drawn) [Example 2, N-(1-ethoxycarbonyl-3-phenylpropyl)-L-alanyl-N-cyclohexylglycine hydrochloride] | 64 | 90 | 82 | 82 | 77 |
| CCOC(=O)C(CCc1ccccc1)N[C@@H](C)C(=O)N(CC(=O)O)C1CCCC1.Cl (stereo partly drawn) [Example 1, N-(1-ethoxycarbonyl-3-phenylpropyl)-L-alanyl-N-cyclopentylglycine hydrochloride] | 84 | 96 | 92 | 82 | 82 |
| CCCCOC(=O)C(CCc1ccccc1)N[C@@H](C)C(=O)N(CC(=O)O)C1CCCCCC1 (stereo partly drawn) [Example 7, N-(1-butoxycarbonyl-3-phenylpropyl)-L-alanyl-N-cycloheptylglycine hydrochloride] | 88 | 98 |  |  |  |
| CCCCOC(=O)[C@H](CCc1ccccc1)N[C@@H](C)C(=O)N(CC(=O)O)C1CCCC1.Cl [Example 12, N-[1-(S)-butoxycarbonyl-3-phenylpropyl]-L-alanyl-N-cyclopentylglycine hydrochloride] |  |  | 95 | 85 | 76 |
| CCOC(=O)C(CCc1ccccc1)NC(C)C(=O)N(CC(=O)O)C1CC2CCC1C2 [Example 17, N-[1-(2)-ethoxycarbonyl-3-phenylpropyl]-L-alanyl-N-(2-exonorbornyl)glycine hydrobromide] | 78 | 99 |  |  |  |
| CCOC(=O)C(CCc1ccccc1)N[C@@H](C)C(=O)N(CC(=O)O)C1C2CC3CC(C2)CC1C3 (stereo partly drawn) [Example 19, N-(1-ethoxycarbonyl-3-phenylpropyl)-L-alanyl-N-(2-adamantyl)glycine hydrobromide] | 73 | 93 |  |  |  |
